Laboratory results: patent US9169199B2, “Cycloalkyl guanidine F1F0-ATPase inhibitors and therapeutic uses thereof” (Lycera Corporation, priority 2010, dated 2015)

What was measured:
F1F0-ATPase = target: T1, F1F0-ATPase (Bos taurus, UniProt P13621); assay: Inhibition of ATP synthesis by the F1F0-ATPase; assay type: biochemical
T1 construct: from tissue
Method: (§1) Compounds in Example 4 above were tested for activity against F1F0-ATPase by measuring ATP synthesis. In addition, the compounds were assessed for cytotoxicity in Ramos cells. Inhibition of ATP synthesis by the F1F0-ATPase and cytotoxicity in Ramos cells were measured according to the procedures described in K. M. Johnson et al. Chemistry & Biology 2005, 12, 485-496.

Ramos cells = assay: Cytotoxicity in Ramos cells; assay type: cell-based; details: Homo sapiens, read-out: Ramos cell EC50
Method: as §1

Work on O=C(/N=C(/NCc1ccc(Cl)cc1)N[C@H]1CC[C@H](Nc2ncccn2)CC1)c1ccc(F)c(F)c1 [Compound 91] yielded an IC50 (F1F0-ATPase) of under 10 µM and an EC50 (Ramos cells) of under 10 µM.

With O=C(/N=C(/Nc1cccc(Cl)c1)N[C@H]1CC[C@H](O)CC1)c1ccc(F)c(F)c1 [Compound 5] the IC50 (F1F0-ATPase) was over 10 µM and the EC50 (Ramos cells) was under 10 µM.

O=C(/N=C(/Nc1ccc(Cl)c(F)c1)N[C@H]1CC[C@H](O)CC1)c1ccc(C(F)(F)F)cc1 [Compound 68] showed an IC50 (F1F0-ATPase) of under 10 µM and an EC50 (Ramos cells) of under 10 µM.

Compound CCOC(=O)N[C@H]1CC[C@H](N/C(=N/C(=O)c2ccc(F)c(F)c2)Nc2cc(F)cc(Cl)c2)CC1 [Compound 10] has an IC50 (F1F0-ATPase) of under 10 µM and an EC50 (Ramos cells) of under 10 µM.

O=C(/N=C(/Nc1cc(F)cc(Cl)c1)N[C@H]1CC[C@@H](Nc2ncccn2)CC1)c1ccc(F)c(F)c1 [Compound 120] was tested, and the IC50 (F1F0-ATPase) was under 10 µM and the EC50 (Ramos cells) was under 10 µM.

Compound O=C(/N=C(/Nc1ccc(F)c(Cl)c1)N[C@H]1CC[C@H](Nc2ncccn2)CC1)c1ccc(F)c(F)c1 [Compound 83] has an IC50 (F1F0-ATPase) of under 10 µM and an EC50 (Ramos cells) of under 10 µM.

Work on O=C(/N=C(/Nc1cc(F)cc(Cl)c1)NC1CCC(NC(=O)c2ccccc2)CC1)c1ccccc1 (stereo not shown) [Compound 151] yielded an IC50 (F1F0-ATPase) of under 10 µM and an EC50 (Ramos cells) of under 10 µM.

With O=C(/N=C(/NCc1ccc(F)cc1Cl)N[C@H]1CC[C@H](Nc2ncccn2)CC1)c1ccc(F)c(F)c1 [Compound 73] the IC50 (F1F0-ATPase) was under 10 µM and the EC50 (Ramos cells) was under 10 µM.

In the case of CCNC(=O)[C@H]1CC[C@@H](N/C(=N\C(=O)c2ccc(F)c(F)c2)Nc2cc(F)cc(Cl)c2)CC1 [Compound 89], the IC50 (F1F0-ATPase) is reported as under 10 µM and the EC50 (Ramos cells) is reported as under 10 µM.

O=C(/N=C(/Nc1cccc(C(F)(F)F)c1)N[C@H]1CC[C@H](O)CC1)c1cccc(C(F)(F)F)c1 [Compound 30] showed an IC50 (F1F0-ATPase) of under 10 µM and an EC50 (Ramos cells) of under 10 µM.

For CCOC(=O)N[C@H]1CC[C@H](N/C(=N\C(=O)c2ccc(F)c(F)c2)NCc2ccc(C(F)(F)F)cc2)CC1 [Compound 52], the IC50 (F1F0-ATPase) was under 10 µM and the EC50 (Ramos cells) was under 10 µM.
